The source of these data is patent US20250101041A1, “POSITIVE ALLOSTERIC MODULATORS OF THE MUSCARINIC ACETYLCHOLINE RECEPTOR M4” (Vanderbilt University, priority 2022, published 2025).

For the assay, the target named is T1, human mAChR M4 (Homo sapiens, UniProt P08173).
T1 construct: expressed in transfected cells; host or cells: CHO-K1 (American Type Culture Collection), stably expressing hM4 and Gqi5
T1 sequence (P08173 1-479): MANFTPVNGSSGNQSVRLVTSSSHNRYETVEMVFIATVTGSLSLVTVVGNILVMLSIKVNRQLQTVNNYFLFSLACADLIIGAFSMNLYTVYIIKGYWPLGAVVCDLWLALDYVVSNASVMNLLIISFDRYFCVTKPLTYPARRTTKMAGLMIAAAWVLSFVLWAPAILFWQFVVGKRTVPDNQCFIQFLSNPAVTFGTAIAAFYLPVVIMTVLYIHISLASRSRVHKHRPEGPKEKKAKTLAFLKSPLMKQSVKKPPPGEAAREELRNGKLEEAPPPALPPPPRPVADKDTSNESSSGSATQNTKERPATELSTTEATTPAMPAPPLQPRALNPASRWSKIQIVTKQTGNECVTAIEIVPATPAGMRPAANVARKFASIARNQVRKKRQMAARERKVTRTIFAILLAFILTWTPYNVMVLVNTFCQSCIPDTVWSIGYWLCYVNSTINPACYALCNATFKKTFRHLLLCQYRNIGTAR
Put plainly: mAChR M4 cell-based functional assay: calcium mobilization (Fluo-4, FDSS), potentiation of EC20 acetylcholine response in hM4-Gqi5 CHO-K1 cells. The settings on record: human M4; for Emax at 30 µM: CHO-K1, % ACh maximum at 30 μM; for EC50: potentiation of EC20 acetylcholine response, calcium mobilization. The gist of the method: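 CHO-K1 cells stably co-expressing human M4 and chimeric Gqi5, loaded with Fluo-4 AM (50 min, 37 °C). Compounds in 11-point 1:3 series added first; EC20 acetylcholine added at 144 s and again at 230 s. Calcium read on FDSS at 1 Hz; EC50 and Emax from four-parameter logistic fit of potentiated EC20 response.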
On the technique in general: Calcium assays in cells follow changes in intracellular calcium, usually with a dye or a luminescent sensor.

What is called Emax is the maximal effect, on the per cent scale that the assay sets. Broadly, the EC50 is the concentration needed to bring the measured effect to its halfway point.

With `Cc1cc2nccc(=O)n2nc1N1CCc2ncc(NCc3cncn3C)cc2C1` [Compound 2-131, 8-methyl-7-(3-(((1-methyl-1H-imidazol-5-yl)methyl)amino)-7,8-dihydro-1,6-naphthyridin-6(5H)-yl)-4H-pyrimido[1,2-b]pyridazin-4-one], the maximal response (Emax) at 30 µM amounted to 73% and the concentration for a half-maximal effect (EC50) was 2.79 µM.

Turning to `Cc1ccc(-c2cnc3c(c2)CN(c2nn4c(=O)ccnc4c(C4CC4)c2C)CC3)cn1` [Compound 1-114, 9-cyclopropyl-8-methyl-7-(3-(6-methylpyridin-3-yl)-7,8-dihydro-1,6-naphthyridin-6(5H)-yl)-4H-pyrimido[1,2-b]pyridazin-4-one], the Emax at 30 µM turned out to be 73% and the EC50 amounted to 0.615 µM.

For `Cc1cc(F)c(F)cc1-c1cnc2c(c1)CN(c1nn3c(=O)ccnc3cc1C)CC2` [Compound 1-445, 7-(3-(4,5-difluoro-2-methylphenyl)-7,8-dihydro-1,6-naphthyridin-6(5H)-yl)-8-methyl-4H-pyrimido[1,2-b]pyridazin-4-one], the Emax at 30 µM was found to be 85% and the EC50 amounted to 0.078 µM.

On to `Cc1c(N2CCc3ncc(-c4ccccc4C(C)C)cc3C2)nn2c(=O)ccnc2c1C` [Compound 1-340, 7-(3-(2-isopropylphenyl)-7,8-dihydro-1,6-naphthyridin-6(5H)-yl)-8,9-dimethyl-4H-pyrimido[1,2-b]pyridazin-4-one], for which the maximal effect (Emax) at 30 µM is 48% and the concentration for a half-maximal effect (EC50) was 0.503 µM.

For the compound `Cc1cc2nc(C)c(F)c(=O)n2nc1N1CCc2ncc(N3CCCn4nccc43)cc2C1` [Compound 2-9, 7-(3-(6,7-dihydropyrazolo[1,5-a]pyrimidin-4(5H)-yl)-7,8-dihydro-1,6-naphthyridin-6(5H)-yl)-3-fluoro-2,8-dimethyl-4H-pyrimido[1,2-b]pyridazin-4-one], the Emax at 30 µM is 84% and the EC50 amounted to 0.017 µM.

Turning to `Cc1cc2nccc(=O)n2nc1N1CCc2ncc(-c3cncn3C)cc2C1` [Compound 1-392, 8-methyl-7-(3-(1-methyl-1H-imidazol-5-yl)-7,8-dihydro-1,6-naphthyridin-6(5H)-yl)-4H-pyrimido[1,2-b] pyridazin-4-one], the Emax at 30 µM was 105% and the half-maximal effective concentration (EC50) turned out to be 0.259 µM.

Turning to `COc1ccc(C2CN(c3cnc4c(c3)CN(c3nn5c(=O)ccnc5cc3C)CC4)CCO2)cc1` (stereo not shown) [Compound 2-95, 7-(3-(2-(4-methoxyphenyl)morpholino)-7,8-dihydro-1,6-naphthyridin-6(5H)-yl)-8-methyl-4H-pyrimido[1,2-b]pyridazin-4-one], the Emax at 30 µM came out at 64% and the EC50 came out at 0.814 µM.

As for `Cc1cc(=O)n2nc(N3CCc4ncc(-c5ccc(F)cc5C)cc4C3)c(C)c(C)c2n1` [Compound 1-274, 7-(3-(4-fluoro-2-methylphenyl)-7,8-dihydro-1,6-naphthyridin-6(5H)-yl)-2,8,9-trimethyl-4H-pyrimido[1,2-b]pyridazin-4-one], the Emax at 30 µM turned out to be 84% and the EC50 was 0.448 µM.

For `Cc1cc2nccc(=O)n2nc1N1CCc2ncc(-c3cnn(C)c3)cc2C1` [Compound 1-6, 8-methyl-7-(3-(1-methyl-1H-pyrazol-4-yl)-7,8-dihydro-1,6-naphthyridin-6(5H)-yl)-4H-pyrimido[1,2-b]pyridazin-4-one], the Emax at 30 µM was 83% and the half-maximal effective concentration (EC50) is 0.736 µM.

Regarding `Cc1cc(Cl)c(-c2cnc3c(c2)CN(c2nn4c(=O)cc(C(F)F)nc4c(C)c2C)CC3)cn1` [Compound 1-187, 7-(3-(4-chloro-6-methylpyridin-3-yl)-7,8-dihydro-1,6-naphthyridin-6(5H)-yl)-2-(difluoromethyl)-8,9-dimethyl-4H-pyrimido[1,2-b]pyridazin-4-one], the maximal response (Emax) at 30 µM came to 95% and the EC50 turned out to be 0.109 µM.

Consider `Cc1cc2nc(C(=O)N3CC(C)(F)C3)cc(=O)n2nc1N1CCc2ncc(C(F)(F)F)cc2C1` [Compound 1-45, 2-(3-fluoro-3-methylazetidine-1-carbonyl)-8-methyl-7-(3-(trifluoromethyl)-7,8-dihydro-1,6-naphthyridin-6(5H)-yl)-4H-pyrimido[1,2-b]pyridazin-4-one], for which the maximum response (Emax) at 30 µM worked out at 100% and the concentration giving a half-maximal response (EC50) is 0.167 µM.

Consider `COc1nccc(-c2cnc3c(c2)CN(c2nn4c(=O)ccnc4cc2C)CC3)c1C` [Compound 1-427, 7-(3-(2-methoxy-3-methylpyridin-4-yl)-7,8-dihydro-1,6-naphthyridin-6(5H)-yl)-8-methyl-4H-pyrimido[1,2-b]pyridazin-4-one], for which the Emax at 30 µM was determined as 78% and the EC50 was found to be 1.52 µM.

For `COCc1cc(=O)n2nc(N3CCc4ncc(-c5cnc(F)cc5C)cc4C3)c(C)cc2n1` [Compound 1-327, 7-(3-(6-fluoro-4-methylpyridin-3-yl)-7,8-dihydro-1,6-naphthyridin-6(5H)-yl)-2-(methoxymethyl)-8-methyl-4H-pyrimido[1,2-b]pyridazin-4-one], the Emax at 30 µM turned out to be 71% and the half-maximal effective concentration (EC50) was 0.311 µM.

As for `Cc1c(N2CCc3ncc(-c4ccc(F)cc4F)cc3C2)nn2c(=O)ccnc2c1C` [Compound 1-347, 7-(3-(2,4-difluorophenyl)-7,8-dihydro-1,6-naphthyridin-6(5H)-yl)-8,9-dimethyl-4H-pyrimido[1,2-b]pyridazin-4-one], the Emax at 30 µM turned out to be 80% and the EC50 came out at 0.217 µM.

For `Cc1c(N2CCc3ncc(-c4cncc(F)c4)cc3C2)nn2c(=O)ccnc2c1C` [Compound 1-103, 7-(3-(5-fluoropyridin-3-yl)-7,8-dihydro-1,6-naphthyridin-6(5H)-yl)-8,9-dimethyl-4H-pyrimido[1,2-b]pyridazin-4-one], the Emax at 30 µM was 93% and the EC50 worked out at 0.449 µM.

Consider `Cc1cc2nccc(=O)n2nc1N1CCc2ncc(Nc3ccnc(C)c3F)cc2C1` [Compound 2-153, 7-(3-((3-fluoro-2-methylpyridin-4-yl)amino)-7,8-dihydro-1,6-naphthyridin-6(5H)-yl)-8-methyl-4H-pyrimido[1,2-b]pyridazin-4-one], for which the maximal effect (Emax) at 30 µM is 83% and the concentration giving a half-maximal response (EC50) came out at 0.027 µM.

`COCc1cc(=O)n2nc(N3CCc4ncc(-c5ccc(F)c(F)c5)cc4C3)c(C)cc2n1` [Compound 1-330, 7-(3-(3,4-difluorophenyl)-7,8-dihydro-1,6-naphthyridin-6(5H)-yl)-2-(methoxymethyl)-8-methyl-4H-pyrimido[1,2-b] pyridazin-4-one]: the maximal response (Emax) at 30 µM was 68% and the EC50 came to 0.477 µM.

Take `Cc1cc2nccc(=O)n2nc1N1CCc2ncc(-c3cncc(C(C)(C)O)c3)cc2C1` [Compound 1-419, 7-(3-(5-(2-hydroxypropan-2-yl)pyridin-3-yl)-7,8-dihydro-1,6-naphthyridin-6(5H)-yl)-8-methyl-4H-pyrimido[1,2-b]pyridazin-4-one]: the Emax at 30 µM was 82% and the EC50 turned out to be 1.12 µM.

Turning to `Cc1cc2nccc(=O)n2nc1N1CCc2ncc(NC(=O)C3CC(F)(F)C3)cc2C1` [Compound 2-120, 3,3-difluoro-N-(6-(8-methyl-4-oxo-4H-pyrimido[1,2-b]pyridazin-7-yl)-5,6,7,8-tetrahydro-1,6-naphthyridin-3-yl)cyclobutane-1-carboxamide], the maximal effect (Emax) at 30 µM was determined as 71%.
